The target of the test is T1, Human TLR8 (Homo sapiens, UniProt Q9NR97).
T1 construct: host or cells: HEK-293 stably expressing human TLR8, then transfected with pNiFty2(NF-kappaB)-luciferase
T1 sequence (Q9NR97 27-1041): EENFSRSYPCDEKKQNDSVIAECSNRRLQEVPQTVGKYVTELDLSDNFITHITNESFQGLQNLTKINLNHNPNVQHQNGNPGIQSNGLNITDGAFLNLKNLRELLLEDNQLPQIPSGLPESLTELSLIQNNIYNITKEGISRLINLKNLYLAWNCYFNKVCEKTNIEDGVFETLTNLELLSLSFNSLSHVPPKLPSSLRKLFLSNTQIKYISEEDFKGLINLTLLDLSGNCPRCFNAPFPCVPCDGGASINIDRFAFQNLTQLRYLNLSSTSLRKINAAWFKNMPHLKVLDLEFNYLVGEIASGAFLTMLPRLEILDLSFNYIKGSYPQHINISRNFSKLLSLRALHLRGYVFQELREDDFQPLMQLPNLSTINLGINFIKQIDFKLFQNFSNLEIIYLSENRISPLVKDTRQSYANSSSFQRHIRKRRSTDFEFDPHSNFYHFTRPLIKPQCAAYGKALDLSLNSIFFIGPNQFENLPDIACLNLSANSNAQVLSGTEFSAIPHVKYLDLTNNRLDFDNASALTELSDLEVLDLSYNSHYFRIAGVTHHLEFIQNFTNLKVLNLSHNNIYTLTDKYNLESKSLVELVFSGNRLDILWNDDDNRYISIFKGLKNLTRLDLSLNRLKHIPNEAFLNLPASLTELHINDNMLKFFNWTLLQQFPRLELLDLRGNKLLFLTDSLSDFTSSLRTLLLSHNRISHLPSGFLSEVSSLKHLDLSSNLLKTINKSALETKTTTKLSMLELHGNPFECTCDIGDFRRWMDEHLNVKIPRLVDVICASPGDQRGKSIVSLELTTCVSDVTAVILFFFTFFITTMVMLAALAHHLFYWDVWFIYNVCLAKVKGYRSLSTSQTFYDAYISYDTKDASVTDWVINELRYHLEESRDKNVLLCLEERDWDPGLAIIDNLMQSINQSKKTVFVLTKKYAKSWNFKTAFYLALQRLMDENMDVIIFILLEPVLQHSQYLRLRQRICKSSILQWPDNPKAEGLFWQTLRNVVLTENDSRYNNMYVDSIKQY
Description: HEK-293 NF-kappaB luciferase reporter assay, CL097 stimulus. Format: cell-based. From the text: In vitro pharmacology: HEK-293 cells (ATCC) were engineered to stably express a NF-kappaB transcription factor inducible E-selectin (ELAM-1) luciferase reporter derived from the plasmid pGL3 (Promega) containing base pairs −2241 bp to −254 bp from the promoter of the human E-selectin gene (Accession No. NM_000450). These cells were then subsequently engineered to stably and individually express human TLR4, TLR7 or TLR9 full-length ORF cDNAs. Human TLR4 cDNA (Accession No. NM_138554) was cloned into pcDNA 3.0 expression vector (Invitrogen). TLR4 transfected cells were also engineered to express human MD-2 co-receptor [MD-2 cDNA (Accession No. NM_015364) was cloned into the pEF-BOS vector] and were supplemented with 10 nM soluble CD14 (R&D Systems) in the media to optimize LPS responsiveness. Human TLR9 cDNA (Accession No. NM_017442) was cloned into the pBluescript II KS vector (Agilent). Human TLR7 cDNA (Accession No. NM_016562) was obtained from OriGene. HEK-293 cells stably expressing human TLR8 (Accession No. NM_138636) or mouse TLR7 (Accession No. NM_133211) were purchased from InvivoGen and were then stably transfected with pNiFty2(NF-kappaB)-luciferase reporter plasmid (InvivoGen). Each cell type was plated in Dulbecco's modified Eagle's medium (DMEM) containing 10% fetal bovine serum (FBS) at a density of 2.22×10^5 cells/ml into a 384-well plate and incubated for 2 days at 37° C., 5% CO2. Varying concentrations of antagonist compounds were then added. Cells were then incubated for another 30 minutes before adding the appropriate TLR agonist as follows (final concentrations indicated): lipopolysaccharide (LPS; Sigma) at 10 ng/ml for TLR4, CL097 (InvivoGen) at 3 ug/ml for human TLR7 and TLR8 and mouse TLR7, and CpG-2006-2A [sequence: […] (SEQ ID NO: 1) with phosphorothioate backbone, synthesized by Sigma-Aldrich] at 0.6 uM for TLR9.

Where [1] appears, read: human TLR8 in the HEK-293 assay format, read-out: HEK/TLR8 IC50.

Read-outs that look alike come from different tables or passages of the source.

The results in this text go back to patent publication US9126999B2, “Tetrahydropyrazolopyrimidine compounds” (EISAI R&D MANAGEMENT CO., LTD., priority 2012, dated 2015).

As to `COc1ccc([C@@H]2C[C@H](C(F)(F)F)n3nc(-c4ccncc4)cc3N2)cc1OC` [ER-885454], under setting [1], the IC50 was found to be 0.28 µM.

In the case of `COc1ccc([C@@H]2C[C@H](C(F)(F)F)n3nc(-c4ccc(C(=O)N5CCNCC5)cc4)cc3N2)cc1OC` [ER-892887, (4-((5S,7R)-5-(3,4-dimethoxyphenyl)-7-(trifluoromethyl)-4,5,6,7-tetrahydropyrazolo[1,5-a]pyrimidin-2-yl)phenyl)(piperazin-1-yl)methanone], the IC50 (HEK-293, ligand CL097, analyte NFkB-luciferase, read-out: IC50) worked out at 0.08 µM.

In the case of `Cc1nn(C)cc1[C@@H]1C[C@H](C(F)(F)F)n2nc(-c3ccc(NC(N)=O)cc3)cc2N1` [ER-894595], under setting [1], the IC50 worked out at 0.32 µM.

As for `Cc1nn(C)cc1[C@H]1C[C@@H](C(F)(F)F)n2nc(-c3ccc(NC(N)=O)cc3)cc2N1` [ER-894596], the IC50 under setting [1] was 0.54 µM.
